Experimental data from PubChem BioAssay (NCI).
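Method: 48-hour compound exposure of cells in 96-well plates, five concentrations, linear interpolation of endpoints. Abbreviation: GI50, concentration required for 50% inhibition of growth. TGI: concentration producing complete growth inhibition.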

How the values were obtained:
Assay in all cases: inhibition of tumour cell growth, NCI panel, 48 h
[1] = tested on: NCI/ADR-RES ovarian
[2] = tested on: RPMI-8226 leukemia
[3] = tested on: UO-31 renal
[4] = tested on: BT-549 breast
[5] = tested on: SR leukemia
[6] = tested on: OVCAR-4 ovarian
[7] = tested on: EKVX NSCLC
[8] = tested on: SN12C renal
[9] = tested on: A549 NSCLC
[10] = tested on: OVCAR-3 ovarian

Row | Compound | TGI [1] | TGI [2] | TGI [3] | TGI [4] | TGI [5] | TGI [6] | TGI [7] | TGI [8] | TGI [9] | TGI [10] | GI50 [1] | GI50 [2] | GI50 [3] | GI50 [8] | GI50 [5] | GI50 [9] | GI50 [10] | GI50 [6] | GI50 [7]
1 | OC(c1ccc(C(F)(F)F)cc1)C(F)(F)c1nc2ccccc2o1 (stereo not drawn) | > 100 µM | > 100 µM | > 100 µM | > 100 µM | > 100 µM | > 100 µM | > 100 µM |  |  |  |  |  |  |  |  |  |  |  | 
2 | O=c1[nH]nc(Cc2c[nH]c3ccccc23)o1 | > 100 µM | > 100 µM | > 100 µM | > 100 µM |  | > 100 µM | > 100 µM | > 100 µM | > 100 µM | > 100 µM |  |  |  |  |  |  |  |  | 
3 | CC1=C(O)C(=O)C2C(=O)C1C1Cc3ccccc3C21 (stereo not drawn) |  | > 100 µM | > 100 µM |  | > 100 µM | > 100 µM | > 100 µM |  | > 100 µM | > 100 µM |  |  |  |  |  |  |  |  | 
4 | COc1cc(/C=N/n2c(-c3ccccc3)nn(C(C)=O)c2=O)cc(OC)c1OC | > 42.6 µM | 9.59 µM | 54.4 µM | > 74.2 µM |  | > 100 µM | 99.2 µM | > 100 µM | > 94.6 µM |  |  |  |  |  |  |  |  |  | 
5 | COc1ccc(N2C(=O)C3c4[nH]c5ccc(Br)cc5c4C4CCC(C(C)(C)C)CC4C3C2=O)cc1 (stereo not drawn) | > 100 µM | > 100 µM |  | > 100 µM | > 100 µM | > 100 µM | > 100 µM | > 100 µM | > 100 µM | > 100 µM |  |  |  |  |  |  |  |  | 
6 | Cc1c2c(c(O)c3c(O)cccc13)C(=O)C1(O)C(O)=C(C(=O)NCNc3ccc(C(N)=O)cn3)C(=O)C(N(C)C)C1C2 (stereo not drawn) | > 100 µM | 7.59 µM |  | 15.5 µM | 9.53 µM | 5.85 µM | > 100 µM | > 100 µM | 23 µM | 6.84 µM |  |  |  |  |  |  |  |  | 
7 | N#Cc1c(-c2ccc(Cl)cc2)[nH]c(=O)n(C2OC(CO)C(O)C(O)C2O)c1=O (stereo not drawn) | > 100 µM | > 100 µM | > 100 µM | > 100 µM |  | > 100 µM | > 100 µM | > 100 µM | > 100 µM | > 100 µM |  |  |  |  |  |  |  |  | 
8 | COc1ccc(-c2cc(=O)c3cc(OC)ccc3[nH]2)cc1 |  | > 100 µM | > 100 µM |  | > 100 µM | > 100 µM | > 100 µM | > 100 µM | > 100 µM | > 100 µM |  |  |  |  |  |  |  |  | 
9 | COc1cc(C2c3cc4c(cc3OC(NNS(=O)(=O)c3ccc(C)cc3)C2C)OCO4)cc(OC)c1O (stereo not drawn) | 45.1 µM | 41.9 µM |  |  |  | 40.1 µM | 49.8 µM | > 100 µM | > 100 µM | 50 µM |  |  |  |  |  |  |  |  | 
10 | CSc1nc(NC2OC(COC(C)=O)C(OC(C)=O)C(OC(C)=O)C2OC(C)=O)c2c(n1)OCC2=O (stereo not drawn) |  | > 100 µM | > 100 µM |  | > 100 µM | > 100 µM |  | > 100 µM | > 100 µM | > 100 µM |  |  |  |  |  |  |  |  | 
11 | CC(=O)O[C@H]1CC[C@@]2(C)C(=CC[C@@H]3[C@@H]2CC[C@]2(C)c4c(C)nn(-c5ccccc5)c4C[C@@H]32)C1 | > 100 µM |  | 47.3 µM | 23.8 µM | 65 µM | > 100 µM | 53.7 µM | > 100 µM | > 100 µM | > 100 µM |  |  |  |  |  |  |  |  | 
12 | CCOC(=O)C(Cc1ccc(OC(=O)c2ccc(OC)cc2)cc1)NC(=O)C(F)(F)F (stereo not drawn) | > 100 µM | > 100 µM | > 100 µM | > 100 µM |  | > 100 µM | > 100 µM | > 100 µM | > 100 µM | > 100 µM |  |  |  |  |  |  |  |  | 
13 | O=C(O)CCSCc1ccccc1 | > 100 µM | > 100 µM | > 100 µM | > 100 µM |  | > 100 µM | > 100 µM | > 100 µM | > 100 µM | > 100 µM |  |  |  |  |  |  |  |  | 
14 | CC(C)N=C(N)NC#N |  | > 100 µM | > 100 µM |  |  | > 100 µM | > 100 µM | > 100 µM | > 100 µM | > 100 µM |  |  |  |  |  |  |  |  | 
15 | CC(=O)OCC1OC(Nn2c(=O)[nH]c3ccccc3c2=O)C(OC(C)=O)C(OC(C)=O)C1OC(C)=O (stereo not drawn) | > 100 µM | > 100 µM | > 100 µM | > 100 µM | > 100 µM |  | > 100 µM | > 100 µM | > 100 µM | > 100 µM |  |  |  |  |  |  |  |  | 
16 | CC1=C(c2ccccc2)NC(=S)C(C)C(c2ccccc2)=N1 (stereo not drawn) | > 100 µM | 57.5 µM | > 100 µM | > 100 µM | > 100 µM | > 100 µM | > 100 µM | > 100 µM | > 100 µM |  |  |  |  |  |  |  |  |  | 
17 | O=C(Nc1ccc(-n2ccc3c(NC(=O)c4ccccc4)ncnc32)cc1)Nc1ccc(Cl)c(Cl)c1 | 50 µM | 3.2 µM | 14.8 µM |  | 2.7 µM | 1.8 µM | 21 µM | 12.3 µM | 6.64 µM | 3.5 µM | 10.3 µM | 1.21 µM | 7.16 µM | 4.76 µM | 1.17 µM | 1.95 µM | 1.35 µM | 0.887 µM | 7.24 µM
18 | S=C1CCSc2c(ccc3ccccc23)N1 | > 100 µM |  | > 100 µM | > 100 µM | > 100 µM | > 100 µM | > 100 µM | > 100 µM | > 100 µM | > 100 µM |  |  |  |  |  |  |  |  | 
19 | Cc1ccc(S(=O)(=O)Oc2nc3ccccc3nc2OS(=O)(=O)c2ccc(C)cc2)cc1 | > 100 µM | > 100 µM | > 100 µM | > 100 µM | > 100 µM |  | > 100 µM | > 100 µM | > 100 µM | > 100 µM |  |  |  |  |  |  |  |  | 
20 | COC1CC(COCc2ccccc2)CC(OC)O1 (stereo not drawn) | > 100 µM | > 100 µM | > 100 µM |  | > 100 µM |  | > 100 µM | > 100 µM | > 100 µM | > 100 µM |  |  |  |  |  |  |  |  | 
21 | CC(=O)Nc1ccc2c3c(cc(O)c2c1)N(C(=O)CCCCCCC(=O)N1CC(CCl)c2c1cc(O)c1cc(NC(C)=O)ccc21)CC3CCl (stereo not drawn) | > 74.6 µM |  |  | 0.0914 µM |  | > 100 µM | 0.475 µM | 0.237 µM | > 100 µM |  |  |  |  |  |  |  |  |  | 
22 | O=C1C(=O)N(c2cccc(C(F)(F)F)c2)C(=S)N1c1ccccc1 | > 100 µM | > 100 µM | 86.5 µM |  | > 100 µM | > 100 µM | > 100 µM | > 100 µM | > 100 µM |  |  |  |  |  |  |  |  |  | 
23 | Cc1cc(/C=C/c2cc[n+](C)c3ccccc23)c(O)c2ncccc12 |  | 6.41 µM | 21.3 µM |  | 4.3 µM | 32.4 µM | 20 µM | 16 µM | 19.1 µM | 3.97 µM |  |  |  |  |  |  |  |  | 
